Publication PMC3351436, “Direct and Allosteric Inhibition of the FGF2/HSPGs/FGFR1 Ternary Complex Formation by an Antiangiogenic, Thrombospondin-1-Mimic Small Molecule” (PLoS ONE, 2012)
Blank lines part the entries; values can stand above or below the compound they belong to.

How the values were obtained:
[1] = molecular target: T1, HSPGs low affinity receptors on BAEC (Homo sapiens, UniProt P09038); assay: Binding of Eu-FGF2 to endothelial cells (BAEC), low affinity receptors; type: cell-based, bovine; conditions: Eu-FGF2 10 ng/ml
T1 construct: endogenous in cells; host or cells: BAEC
Method: (§1) It was possible to discriminate between FGF2 bound to HSPGs low affinity receptors and FGF2 bound to the high affinity FGFR1, following a previously reported procedure.
(§2) Binding to low and high affinity receptors was analyzed according to [31].
(§3) Binding of FGF2 to cells. Europium-labeled FGF2 (Eu-FGF2) was prepared as previously described. Endothelial cells (BAEC), naturally expressing both HSPGs and FGFR1, CHO-K1 and FGFR1-expressing A745 CHO cells were used. Subconfluent cell cultures in 96-well plates were washed and incubated for 30 min at 277K in serum-free DMEM with 0.15% gelatin and 25mM HEPES (DMEM-gelatin). […] The plate was incubated for 2 h at 277K. Wells were washed with cold DMEM-gelatin to remove unbound FGF2, and the amount of total bound FGF2 was detected by adding DELFIA^? Enhancement Solution (100 µl, PerkinElmer), and measuring time resolved fluorescence using a Victor^3 multilabel plate reader (PerkinElmer), as described.

FGF2 = molecular target: T2, FGF2 (Homo sapiens, UniProt P09038, A136E/C211S/C229S/S138E); assay: NMR 15N-1H HSQC titration of sm27 into FGF2; type: binding; conditions: 0:1 to 4:1 sm27:FGF2, pH 5.5, 298 K
T2 construct: purchased ASLA (Riga, Latvia)
Method: All NMR data were collected on a Bruker DMX 500 MHz spectrometer at 298 K.
NMR samples contained 0.57 mM ^15N-labeled FGF2, dissolved in a buffer containing 50 mM potassium phosphate, 2 mM NaN3, and 10 mM deuterated DTT in 90% H2O/10% D2O, pH 5.5. […] At molar ratios higher than 1:1, partial sample precipitation was observed, till full sample precipitation at nominal 4:1 ratio. […] Due to the precipitation it was not possible to reach the plateau of the titration and to estimate the real stoichiometric ratio at each step.

endothelial cells [2] = test system: endothelial cells; set-up: method as in PMID 20056600; conditions: cited from earlier work
endothelial cells [3] = test system: endothelial cells; set-up: method as in PMID 20056600; conditions: cited from earlier work; remark: listed apart in the source
[4] = test system: chicken chorioallantoic membrane; set-up: method as in PMID 20056600; conditions: chicken chorioallantoic membrane assay; cited from earlier work
FGF2/FGFR1/HSPGs complex = molecular target: T3, FGF2/FGFR1/HSPGs complex (Homo sapiens, UniProt P09038); assay: FGF2-mediated cell-cell adhesion assay (A745 CHO flg-1A cells on CHO-K1 monolayer); type: cell-based; conditions: FGF2 1.66 nM, 2 h incubation, serum-free medium; read-out: ID50, inhibition of FGF2-mediated cell-cell adhesion
T3 construct: expressed in transfected cells; host or cells: A745 CHO flg-1A cells on fixed CHO-K1 monolayer
Method: (§4) Each point is the mean ± SEM of 3 separate experiments. […] C) Binding of Eu-FGF2 to endothelial cells (BAEC). […] After 2 h of incubation at 298K, the cells bound to the monolayer were counted under an inverted microscope. Each point is the mean ± SEM of 3 separate experiments performed in triplicate. In B and C, black and white arrows indicate the inhibitions obtained with heparin (0.1 µg/ml) and unlabeled FGF2 (1.5 µg/ml) used as reference competitor of HSPGs and FGFR1 binding, respectively
To exert its pro-angiogenic activity, FGF2 needs to set up a productive, ternary complex with HSPGs and FGFR1 [32].
Data are mean bound cells in three random microscopic fields.
FGF2-mediated cell-cell adhesion assay: This assay was performed as described previously, with minor modifications. Briefly, monolayers of wild-type CHO-K1 cells were washed with PBS and fixed with 3% glutaraldehyde in PBS for 2 h at 277K followed by washing with 0.1 M glycine, and PBS. […] After 2 h of incubation at 310K, unattached cells were removed by PBS washing and A745 CHO flg-1A cells bound to the CHO-K1 monolayer were counted under an inverted microscope at ×125 magnification. Data are expressed as the mean of the cell counts of three microscopic fields chosen at random. All experiments were performed in triplicate and repeated twice.

FGF2/heparin interaction = molecular target: T4, FGF2/heparin interaction (Homo sapiens, UniProt P09038); assay: SPR competition: FGF2 binding to surface-immobilized heparin; conditions: FGF2 150 nM injected over immobilized heparin, read-out: IC50, prevention of FGF2/heparin interaction
T4 construct: made in house
Method: SPR measurements were performed on a BIAcore X instrument (GE-Healthcare, WI). Heparin was immobilized onto the SPR chip as described [30], allowing the immobilization of 80 resonance units (RU) (6.0 fmol/mm^2).
Surface plasmon resonance (SPR) analysis. SPR measurements were performed on a BIAcore X instrument (GE-Healthcare, WI). Heparin was immobilized onto the SPR chip as already described [27]. Briefly, a CMD50L sensorchip (Xantec Bioanalytics, Dusseldorf, Germany) activated with 50 µl of a mixture containing 0.2 M EDC and 0.5 M NHS was coated with streptavidin. Heparin was biotinylated at its reducing end and immobilized onto the streptavidin-coated sensorchip, allowing the immobilization of 80 resonance units (RU) (6.0 fmol/mm^2 of heparin). A streptavidin-coated sensorchip was used as reference and for blank subtraction. […] After every run, the sensorchip was regenerated by injection of HBS containing 2.0 M NaCl.

HSPGs on CHO-K1 cells = molecular target: T5, HSPGs on CHO-K1 cells (Homo sapiens, UniProt P09038); assay: Binding of Eu-FGF2 to wild-type CHO-K1 cells (expressing HSPGs but not FGFR1); type: cell-based
T5 construct: endogenous in cells; host or cells: CHO-K1
Method: as §1, §2, §3

[5] = molecular target: T6, high affinity FGFR1 on BAEC (Homo sapiens, UniProt P09038); assay: Binding of Eu-FGF2 to endothelial cells (BAEC), high affinity receptors; type: cell-based, bovine; conditions: Eu-FGF2 10 ng/ml, after 2 M NaCl wash
T6 construct: endogenous in cells; host or cells: BAEC
Method: as §1, §2, §3

[6] = molecular target: T7, FGFR1 on A745 CHO flg-1A cells (Homo sapiens, UniProt P09038); assay: Binding of Eu-FGF2 to FGFR1-transfected A745 CHO flg-1A cells (HSPG-deficient); type: cell-based, murine
T7 construct: expressed in transfected cells; host or cells: A745 CHO (HSPG-deficient), clone flg-1A
Method: as §1, §2
Cell cultures. Wild-type CHO-K1 cells and the derived HSPG-deficient A745 CHO cell mutants, kindly provided by J. D. Esko (La Jolla, CA), were grown in Ham's F-12 medium supplemented with 10% fetal calf serum (FCS). […] Bovine aortic endothelial cells (BAEC) [30]were cultured in DMEM supplemented with 10% FCS.
as §3

FGF2/FGFR1 interaction = molecular target: T8, FGF2/FGFR1 interaction (Homo sapiens, UniProt P09038); assay: SPR competition: FGF2 binding to substrate-immobilized FGFR1; conditions: FGF2 150 nM injected over immobilized FGFR1, read-out: ID50, prevention of FGF2/FGFR1 interaction
T8 construct: purchased ReliaTech
Method: as §4
SPR measurements were performed on a BIAcore X instrument (GE-Healthcare, WI). Heparin was immobilized onto the SPR chip as described, allowing the immobilization of 80 resonance units (RU) (6.0 fmol/mm^2). Immobilization of FGFR (13,800 RU, 42.0 fmol/mm^2), is described in the Supporting Information S1. Sensorchips coated with streptavidin or FGF-unrelated noggin protein were used for blank subtraction (respectively for heparin and FGFR-1).
Surface plasmon resonance (SPR) analysis. SPR measurements were performed on a BIAcore X instrument (GE-Healthcare, WI). Heparin was immobilized onto the SPR chip as already described. Briefly, a CMD50L sensorchip (Xantec Bioanalytics, Dusseldorf, Germany) activated with 50 µl of a mixture containing 0.2 M EDC and 0.5 M NHS was coated with streptavidin. […]

T7 sequence (P09038 134-288): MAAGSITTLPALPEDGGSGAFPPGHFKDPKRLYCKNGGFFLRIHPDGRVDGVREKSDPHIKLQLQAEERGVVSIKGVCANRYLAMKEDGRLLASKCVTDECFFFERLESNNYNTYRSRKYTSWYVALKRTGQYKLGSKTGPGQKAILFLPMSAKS
T5 sequence (P09038 134-288): as above
T3 sequence (P09038 134-288, one chain of several): as the sequence (P09038 134-288) above
T6 sequence (P09038 134-288): as above
T4 sequence (P09038 134-288): as above
T8 sequence (P09038 134-288): as above
T1 sequence (P09038 134-288): as above
T2 sequence (P09038 134-288 A136E/S138E/C211S/C229S): as the sequence (P09038 134-288) above, with A3E, S5E, C78S, C96S counted along it

Compound: O=C(Nc1ccc2cc(S(=O)(=O)O)cc(O)c2c1)Nc1ccc2cc(S(=O)(=O)O)cc(O)c2c1 [sm27, 4-hydroxy-6-((((8-hydroxy-6-sulfo-2-naphthyl)amino)carbonyl)amino)-2-naphthalenesulfonic acid]
Effect on FGF2 binding to HSPGs low affinity receptors [1]: inhibited
Binding to FGF2 judged from the NMR titration (exchange regime) (FGF2): weak binding
Effect on binding of FGF2 to endothelial cells (endothelial cells [2]): prevented
Effect on FGF2-induced endothelial cell proliferation (endothelial cells [3]): inhibited
Effect on FGF2-induced angiogenesis [4]: inhibited
IC50 (FGF2/FGFR1/HSPGs complex): 1 µM
IC50 (FGF2/heparin interaction): 3.5 µM
Effect on Eu-FGF2 binding to HSPGs (HSPGs on CHO-K1 cells; Eu-FGF2 10 ng/ml): inhibited
Effect on FGF2 binding to high affinity FGFR1 [5]: inhibited
Effect on Eu-FGF2 binding to FGFR1 ([6]; A745 CHO flg-1A cells, Eu-FGF2 10 ng/ml): inhibited
IC50 (FGF2/FGFR1 interaction): 4 µM

Effect of reference competitor on Eu-FGF2 binding to HSPGs (HSPGs on CHO-K1 cells; heparin 0.1 µg/ml): inhibitory activity
Compound: heparin [reference compound]

Effect of reference competitor on Eu-FGF2 binding to FGFR1 ([6]; FGFR1-CHO cells, unlabeled FGF2 1.5 µg/ml): inhibitory activity
Compound: unlabelled FGF2: Human recombinant FGF2, unlabeled, reference competitor of FGFR1 binding [reference compound]
